Measured values as given in US9062313B2, “Gem-difluorinated C-isopropylgalactoside derivates” (TFCHEM, priority 2011, dated 2015).

What was measured:
[1] = Stability of compounds in D2O solution at room temperature, followed by 19F NMR and 1H NMR; assay type: physicochemical
Method: Compounds T-16 and T-18 were dissolved in D2O and the resulting solutions were kept at room temperature. The stability of the compound was studied by ^19F NMR and ^1H NMR.

E. coli culture = assay: Toxicity to bacteria (absorbance of bacteria culture, OD600nm); assay type: cell-based, Escherichia coli; settings: 0.5 mM; for toxicity throughout the assay: 8 hours, versus negative control without inducer
Method: (§1) The bacteria strain E. coli XL1—Blue MRF′ Electroporation-competent cells (Stratagene #200158) containing pGEM-T vector was grown in LB medium adding with appropriate antibiotic (ampicillin). The starter culture was grown by inoculating plasmid containing cells in LB medium added with ampicillin and incubated overnight at 37° C. with shaking at 250 rpm. When culture reached the desired OD, the induction was started.
The absorbance of the bacteria culture was measured (OD600nm) every hour during 8 hours after the substrate addition. The absorbance was plotted as a function of time representing the toxicity for each inducer. The negative control (no toxicity) consists on an assay without inducer. Assays were performed as triplicate.

[2] = system: expression of Green Fluorescent Protein UV (GFPuv) in BLR(DE3) E. coli; assay: Recombinant GFPuv protein production, total and soluble fractions (SDS-PAGE densitometry); assay type: cell-based, Escherichia coli; settings: inducer 0.1 mM, 0.05 mM and 0.01 mM
Method: Properties: MW: 27 763 Da. Theoretical pI: 6.13—Theoretical Absorption coefficient: 0.788—Number of Cys: 2 Construction of One Expression Strain: • Construct GFPUV-pET30b/3 was transformed into BLR(DE3) E. coli expression strain. • Cultures were performed from one single colony in a semi-defined Riesenberg medium in order to produce a Research Cell Bank (20 tubes of 1 mL stored at <−70° C.). Pre-cultures and Cultures Conditions: • Pre-cultures and cultures were performed in semi-defined Riesenberg medium, 50 mL and 250 mL flasks-scale, respectively. […] Analysis by SDS-PAGE Stained by Coomassie Blue • Sample: 10 μl deposit of suspension at equivalent OD600nm=8. • The proteins were separated by SDS-PAGE 4-12%, and then colored by Coomassie blue. • Quantitative measurement by densitometry and comparison with standard range of proteins.
Quantity of proteins (μg) was plotted as a function of time representing the kinetic of induction of GFPuv expression for each inducer and/or concentration tested.
The induction profile of GFPuv was evaluated for both IPTG and T-18 inducers at different concentrations. […]

[3] = system: β-galactosidase expression (lacZ promoter); assay: Induction of β-galactosidase expression in E. coli (ONPG assay, OD420nm); assay type: cell-based, Escherichia coli; settings: for effectiveness as inducer compared with IBCG / effectiveness as inducer compared with IPTG: during 3 h following the substrate addition; for efficacy of induction overtime: up to 8 h following substrate addition; for induction of β-galactosidase expression/transcription: inducer 0.5 mM, until 3 hours after addition of ONPG substrate
Method: as §1
For each assay the starter culture was appropriately diluted (OD600=0.2) in 1.5 mL of LB medium with 3 μg/mL of ampicillin
β-galactosidase expression is then induced by addition of either IPTG (Sigma I1284), IBCG or Compounds T-16 and T-18 to final concentrations of 0.5 or 1 mM. After this induction the cultures are incubated for 3 hours at 37° C. with shaking at 250 rpm.
The β-galactosidase activity was assayed by adding 0.5 mg/mL of the ortho 2-nitrophenyl-β-D-galactopyranoside (ONPG Sigma N1127) as chromogenic substrate. ONPG is hydrolyzed by β-galactosidase to yield galactose and ortho-Nitrophenol, which is yellow in color and absorbs light at 420 nm. The intensity of the color can be used to determine the β-galactosidase activity.
Absorbance was measured (OD420nm) every hour during 8 hours after the substrate addition. The absorbance was plotted as a function of time representing the induction kinetic of β-galactosidase activity for each inducer and each concentration tested. Assays were performed as triplicate.

Structure (SMILES)	degradation in solution (stability by 19F NMR and 1H NMR) ([1]; 24 weeks follow up)	toxicity compared with IPTG (E. coli culture; after 3 h up to 8 h following the substrate addition)	toxicity compared with IPTG (E. coli culture; until 3 h following the substrate addition)	final quantity of GFPuv produced (total fraction) compared with IPTG [2]	effectiveness relative to IPTG ([3]; 0.5 mM, 8 h following substrate addition)	effectiveness as inducer compared with IBCG ([3]; 0.5 mM)	effectiveness as inducer compared with IPTG ([3]; 0.5 mM)	efficacy of induction overtime ([3]; 0.5 mM)	induction of β-galactosidase expression/transcription [3]	toxicity throughout the assay (E. coli culture)	degradation in solution (stability by 19F NMR and 1H NMR) ([1]; 10 weeks follow up)
CC(C)C(F)(F)[C@@H]1O[C@H](CO)[C@H](O)[C@H](O)[C@H]1O [Compound T-18]	without any degradation	less toxic than IPTG	as toxic as IPTG	higher than with IPTG	at least 3 times	more effective inducers than IBCG	as effective inducers than IPTG	remains effective overtime	efficient inducers		
CC(C)S[C@@H]1O[C@H](CO)[C@H](O)[C@H](O)[C@H]1O [IPTG, isopropyl-β-D -thiogalactopyranoside, reference compound]								efficacy decrease		medium toxicity	
CC(C)(O)C(F)(F)[C@@H]1O[C@H](CO)[C@H](O)[C@H](O)[C@H]1O [Compound T-16]						more effective inducers than IBCG	as effective inducers than IPTG		efficient inducers	medium toxicity	without any degradation
